From PMC3079629, “Cloning and characterization of a 9-lipoxygenase gene induced by pathogen attack from Nicotiana benthamiana for biotechnological application” (BMC Biotechnology, 2011)

Target: T1, Nb-9-LOX (Nicotiana benthamiana, UniProt R4S2V6)
T1 construct: protein starts MSLEKI, ends NSVSI (from primers)
T1 sequence (R4S2V6 1-862): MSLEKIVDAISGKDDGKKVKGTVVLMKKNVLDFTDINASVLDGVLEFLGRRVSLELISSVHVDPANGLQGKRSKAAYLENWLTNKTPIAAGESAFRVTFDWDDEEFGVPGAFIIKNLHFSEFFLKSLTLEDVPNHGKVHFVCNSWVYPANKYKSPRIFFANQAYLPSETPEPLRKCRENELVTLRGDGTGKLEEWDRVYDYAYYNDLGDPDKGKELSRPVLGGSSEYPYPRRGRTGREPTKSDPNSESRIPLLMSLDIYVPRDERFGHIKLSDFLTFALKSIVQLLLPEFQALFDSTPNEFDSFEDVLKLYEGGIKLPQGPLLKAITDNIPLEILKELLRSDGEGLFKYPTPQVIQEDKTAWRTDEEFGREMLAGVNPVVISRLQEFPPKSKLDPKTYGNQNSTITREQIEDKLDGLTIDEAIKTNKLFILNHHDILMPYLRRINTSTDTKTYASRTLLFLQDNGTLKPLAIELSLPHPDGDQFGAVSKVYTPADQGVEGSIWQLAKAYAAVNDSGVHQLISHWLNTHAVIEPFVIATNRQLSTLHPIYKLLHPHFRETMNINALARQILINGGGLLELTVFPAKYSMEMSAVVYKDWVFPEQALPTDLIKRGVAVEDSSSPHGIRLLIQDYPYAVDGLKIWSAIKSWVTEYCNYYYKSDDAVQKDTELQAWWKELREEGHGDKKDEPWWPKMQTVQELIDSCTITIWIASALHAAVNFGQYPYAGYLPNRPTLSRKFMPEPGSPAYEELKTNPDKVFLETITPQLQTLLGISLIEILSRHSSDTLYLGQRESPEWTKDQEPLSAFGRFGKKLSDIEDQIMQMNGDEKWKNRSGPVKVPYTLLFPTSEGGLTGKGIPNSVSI
Assay: spectrophotometry at […] nm, conjugated diene formation, crude yeast extract
Format: biochemical
Conditions: 50 mM sodium phosphate; pH 6.0 presumed for the Km (used after the optimum was found); room temperature; O2

Km: 3.9 µM
Structure (SMILES): CCCCC/C=C\C/C=C\CCCCCCCC(=O)O [linoleic acid]
